The text below walks through data of publication PMC10791089, “Identification and evaluation of antiviral activity of novel compounds targeting SARS-CoV-2 virus by enzymatic and antiviral assays, and computational analysis” (Journal of Enzyme Inhibition and Medicinal Chemistry, 2024).

The subject of data set [1] is SARS-CoV-2 strain Slovakia/SK-BMC5/2020. Briefly: microbe, parasite or virus in culture. Format: cell-based.
Data set [2] relates to VERO-E6, Caco-2, PK-15, and A549 cells. Put plainly: Cell viability MTT assay, averaged over screened cell lines. As to conditions: concentration causing >40% reduction in number of viable cells, 72 h, 0.5-30 µM, n/o = no cytotoxic effect observed within the concentration range. On the technique in general: Formazan colour is commonly taken as a measure of viable cells.
In data set [3] the target is T1, SARS-CoV-2 PL^pro (Severe acute respiratory syndrome coronavirus 2, UniProt P0DTD1). Put plainly: biochemical. The data set is classed as biochemical.
For data set [4], the target named is T1, SARS-CoV-2 PL^pro. Put plainly: biochemical.
In data set [5] the target is SARS-CoV-2 M^pro (Severe acute respiratory syndrome coronavirus 2, UniProt P0DTD1). Put plainly: biochemical.
The subject of data set [6] is VERO-E6 cells. Put plainly: Cell viability MTT assay in VERO-E6 cells. Format: cell-based, African Green Monkey. The note with it: VERO-E6 cell line, 72 h.
Data set [7] deals with PL^pro. The note with it: read-out: IC50 deubiquitinase activity; drug repurposing study; cited from earlier work.
Data set [8] relates to severe COVID-19 and hospitalisation. The arrangement: method as in PMID 34726479. As to conditions: treatment started during the first days after appearance of symptoms; cited from earlier work.
The mark [9] stands for this setting: Severe acute respiratory syndrome coronavirus 2, Vero C1008, 72 h, read-out: EC50 Plaque reduction assay.
Setting [10] is: protease activity, 1 h at 37 °C, 1 mM DTT, read-out: IC50 Enzyme assay PA PL^pro.
The mark [11] stands for this setting: deubiquitinase activity, 1 h at 37 °C, 1 mM DTT, read-out: IC50 Enzyme assay DUA PL^pro.
Setting [12] is: protease activity, 4 h at room temperature, 1 mM DTT, read-out: IC50 Enzyme assay PA M^pro.
Where [13] appears, read: Severe acute respiratory syndrome coronavirus 2, Vero C1008, VERO-E6 cells, MOI 1.0, 72 h, 0.1-30 µM, n/o = no antiviral effect observed within the concentration range, read-out: EC50 Plaque reduction assay.
Where [14] appears, read: Severe acute respiratory syndrome coronavirus 2, Vero C1008, read-out: EC50 from the sigmoidal model (Figure 3 B1-B5).
[15] abbreviates: read-out: IC50 Enzyme assay PA PL^pro, protease activity, 1 h at 37 °C, 1 mM DTT.
[16] abbreviates: VERO-E6 cells, MOI 1.0, 72 h, 0.1-30 µM, n/o = no antiviral effect observed within the concentration range.

Values joined by “and” are separate entries in the source; they are usually repeats but may differ in a detail not shown here. Identical values can stand only once. Like-named read-outs stand apart in the source and are kept apart here. A value given as a limit tells only on which side of the number the result lay.

For orientation: EC50 means the concentration at which the effect is half-maximal. A word on the IC50: it is the point on the concentration scale where inhibition reaches its midpoint. Consider `N#CSc1cc(SC#N)c(N)nc1N` [Compound C4, PR-619, reference compound], for which the EC50 in data set [1] (setting [9]) came out at 9 µM. Besides, the “CTE Cell viability MTT assay” value was >10.0 µM in data set [2] and 5 to 10 µM in data set [2] (listed as PR-619). Further, the IC50 was determined as 0.1 µM in data set [3] (setting [10]), 0.2 µM in data set [4] (setting [11]) and 0.7 µM in data set [5] (setting [12]).
As to `CCC(CC)COC(=O)[C@H](C)N[P@](=O)(OC[C@H]1O[C@@](C#N)(c2ccc3c(N)ncnn23)[C@H](O)[C@@H]1O)Oc1ccccc1` [Compound C8, Remdesivir, reference compound], in data set [1] (setting [13]), the EC50 was found to be 1.8 µM. Moreover, the “CTE Cell viability MTT assay” value in data set [2] is “n/o”.
Consider `Cc1ccc(N)cc1C(=O)N[C@H](C)c1cccc2ccccc12` [Compound C9, GRL0617, reference compound], for which the EC50 in data set [1] (VERO-E6 cells, MOI 1.0, 72 h, 0.1-30 µM, n/o = no antiviral effect observed within the concentration range, read-out: EC50 Plaque reduction assay) came to 2.5 µM.
As for `CC(C)C[C@@H](NC(=O)OCc1ccccc1)C(=O)N[C@@H](CC1CCNC1=O)C(O)S(=O)(=O)O` (stereo partly drawn) [Compound C10, GC376, reference compound], the EC50 in data set [1] (setting [13]) came to 1 µM.
As for `O=C1/C(=C/c2ccc([N+](=O)[O-])cc2)CC(O)C/C1=C\c1ccc([N+](=O)[O-])cc1` (stereo not drawn) [Compound T97], the “CTE Cell viability MTT assay” value in data set [2] is given as >5.0 µM. For the same compound, the IC50 in data set [3], in data set [4] and in data set [5] was > 100 µM each time. Moreover, in data set [6], the “CTE in VERO-E6 cells” value is on record as “approximately 5 µM”.
Take `NCCCNC(=O)OC1C/C(=C\c2ccc([N+](=O)[O-])cc2)C(=O)/C(=C/c2ccc([N+](=O)[O-])cc2)C1` (stereo not drawn) [Compound T98]: the EC50 in data set [1] (setting [9]) stood at 6.7 µM; in data set [1] (setting [14]), 6.69 µM. In addition, the “CTE Cell viability MTT assay” value in data set [2] was >15.0 to 30.0 µM. Moreover, the IC50 is < 100 µM in data set [3] (setting [15]) and > 100 µM in data set [5]. Further, in data set [6], the “CTE in VERO-E6 cells” value is > 15 µM and 10 to 15 µM.
For the compound `CC(C)(C)OC(=O)NCCCC[C@H](NC(=O)OC1C/C(=C\c2ccc([N+](=O)[O-])cc2)C(=O)/C(=C/c2ccc([N+](=O)[O-])cc2)C1)C(=O)O` (stereo partly drawn) [Compound T105], the half-maximal effective concentration (EC50) in data set [1] (setting [9]) was > 30 µM. Also, in data set [1] (setting [16]), the “EC50 Plaque reduction assay” value is “no antiviral effect was observed and n/o”. Moreover, in data set [2], the “CTE Cell viability MTT assay” value was “no observed cytotoxic effect and n/o”. Also, the IC50 in data set [3], in data set [4] and in data set [5] was > 100 µM each time.
Regarding `CC(C)C[C@H](NC(=O)OC1C/C(=C\c2ccc([N+](=O)[O-])cc2)C(=O)/C(=C/c2ccc([N+](=O)[O-])cc2)C1)C(N)=O` (stereo partly drawn) [Compound T120], the EC50 in data set [1] (setting [9]) stood at 3.4 µM; in data set [1] (setting [14]) it was 3.43 µM. Further, the “CTE Cell viability MTT assay” value in data set [2] is on record as >10.0 µM. For the same compound, the IC50 in data set [3] (setting [15]) is < 100 µM; in data set [5], > 100 µM. Moreover, the “CTE in VERO-E6 cells” value in data set [6] is > 10 µM and 10 to 15 µM.
Consider `NC(=O)[C@H](Cc1ccccc1)NC(=O)OC1C/C(=C\c2ccc([N+](=O)[O-])cc2)C(=O)/C(=C/c2ccc([N+](=O)[O-])cc2)C1` (stereo partly drawn) [Compound T121], for which the EC50 was found to be 8.4 µM in data set [1] (setting [9]) and 8.39 µM in data set [1] (setting [14]). Also, the “CTE Cell viability MTT assay” value in data set [2] was >10.0 to 15.0 µM. Also, the half-maximal inhibitory concentration (IC50) in data set [3], in data set [4] and in data set [5] was > 100 µM each time. For the same compound, in data set [6], the “CTE in VERO-E6 cells” value was 10 to 15 µM.
Turning to `NCCCNC(=O)OC1C/C(=C\c2ccc([N+](=O)[O-])cc2)C(O)/C(=C/c2ccc([N+](=O)[O-])cc2)C1` (stereo not drawn) [Compound T122], the EC50 in data set [1] (setting [9]) and in data set [1] (setting [14]) was 17 µM throughout. Also, the “CTE Cell viability MTT assay” value in data set [2] is listed as >30.0 µM. For the same compound, the figures for the IC50 in data set [3] (setting [15]) and in data set [5] were < 100 µM and > 100 µM, respectively. The “CTE in VERO-E6 cells” value in data set [6] is > 30 µM.
Turning to `COc1cc(/C=C2\CC(OC(=O)NCCCN)C/C(=C\c3ccc(O)c(OC)c3)C2=O)ccc1O` (stereo not drawn) [Compound T123], in data set [1] (setting [16]), the “EC50 Plaque reduction assay” value is “no antiviral effect was observed and did not show any inhibitory efficiency and n/o”. Moreover, the results for the IC50 in data set [3] (setting [10]), in data set [4] (setting [11]) and in data set [5] (setting [12]) were 60 µM, 75 µM and > 100 µM, respectively.
Consider `CC(C)C[C@H](N)C(=O)NCCCNC(=O)OC1C/C(=C\c2ccc([N+](=O)[O-])cc2)C(=O)/C(=C/c2ccc([N+](=O)[O-])cc2)C1` (stereo partly drawn) [Compound T124], for which the EC50 in data set [1] (setting [9]) and in data set [1] (setting [14]) was 15.9 µM in each case. The “CTE Cell viability MTT assay” value in data set [2] is given as >30.0 µM. Moreover, the IC50 in data set [3], in data set [4] and in data set [5] was > 100 µM in each case. Besides, the “CTE in VERO-E6 cells” value in data set [6] is > 30 µM.
In the case of `O=[N+]([O-])c1ccc(/C=C2\CC(O)C/C(=C\c3ccc([N+](=O)[O-])cc3)C2O)cc1` (stereo not drawn) [Compound T125], the “EC50 Plaque reduction assay” value in data set [1] (setting [16]) was “no antiviral effect was observed and did not show any inhibitory efficiency and no antiviral activity and n/o”. Moreover, in data set [2], the “CTE Cell viability MTT assay” value was “no observed cytotoxic effect and n/o”. Besides, the IC50 in data set [3] (setting [15]) is < 100 µM; in data set [5], > 100 µM.
With `Cc1ccc(/C=C2\CNC/C(=C\c3ccc(C)cc3)C2=O)cc1` [NSC63283], in data set [7], the IC50 is > 100 µM.
Turning to `O=C1/C(=C/c2ccc([N+](=O)[O-])cc2)CNC/C1=C\c1ccc([N+](=O)[O-])cc1` [RA-9, reference compound], the EC50 in data set [1] (setting [9]) is 12.1 µM. Besides, the “CTE Cell viability MTT assay” value in data set [2] is reported as >30.0 µM.
In the case of `N[C@@H](Cc1ccccc1)C(=O)N1C/C(=C\c2ccc(Cl)c(Cl)c2)C(=O)/C(=C/c2ccc(Cl)c(Cl)c2)C1` [RA-190, reference compound], in data set [1] (setting [13]), the EC50 was 3 µM. Besides, the IC50 in data set [3] (setting [10]), in data set [4] (setting [11]) and in data set [5] (setting [12]) was > 100 µM throughout.
Turning to `CC(C)(C)[C@H](NC(=O)C(F)(F)F)C(=O)N1C[C@H]2[C@@H]([C@H]1C(=O)N[C@H](C#N)C[C@@H]1CCNC1=O)C2(C)C` [nirmatrelvir], the “protection against severe COVID-19 and hospitalisation” value in data set [8] is on record as “approximately 90%”.
